Reference: patent publication US5804593A, “α-Amino sulfonyl hydroxamic acids as matrix metalloproteinase inhibitors” (Pharmacia & Upjohn Company, priority 1997, dated 1998)

Biological target: Gelatinase
Assay: particle concentration fluorescence assay of MMP inhibition in vitro
Assay type: biochemical
Conditions: fluorescein/biotin-labelled substrate, avidin-coated particles, room temperature, pH 7.5
Method: Inhibitory activity is evaluated in one or more of the MMP enzymes (stromelysin, gelatinase, and collagenase) in vitro using particle concentration fluorescence assay. An inhibitor binds to MMP enzymes which prevents the degradation of a substrate by stromelysin, gelatinase, or collagenase. The substrate has attached to it a fluorescein and a biotin moiety. The intact substrate then binds to an avidin-coated particle via the biotin moiety. Once the particle is washed and dried, a fluorescent signal is generated since the fluorescent group is attached to the particle. Without an inhibitor present, the substrate is degraded by MMP enzymes and the fluorescein group is removed, therefore, no fluorescent signal can be detected. Testing compounds are dissolved in DMSO to the desired concentration, then the solutions are diluted to 1:5 with MMP buffer (50 mM Tris-HCl, pH 7.5; 150 mM NaCl; 0.02% NaN3). Serial two-fold dilutions of each compound are prepared. A concentrated, activated enzyme solution is transferred into each plate of the testing compounds, and the mixture is incubated at room temperature for 15 minutes. Thawed MMP substrate is then added into all plates, and the plates are incubated in the dark for 1-3 hours at room temperature. At this point, the substrate mixture is mixed with 0.1% avidin-coated polystyrene particles. After 15 minutes, the fluorescence values are measured following filtration and washing of the beads. Ki values are then calculated.

| Ki [nM] | SMILES |
| --- | --- |
| 7.81 | COc1ccc(S(=O)(=O)N[C@H](Cc2c[nH]c3ccccc23)C(=O)NO)cc1 [Example 1, N-hydroxy-2(R)-[(4-methoxybenzenesulfonyl)amino]-3-(3-indolyl)-propanamide] |
| 14.2 | O=C(NO)[C@@H](Cc1c[nH]c2ccccc12)NS(=O)(=O)c1ccccc1 [Example 2, N-hydroxy-2(R)-[(benzenesulfonyl)amino]-3-(3-indolyl)-propanamide] |
| 79 | O=C(NO)[C@@H](Cc1c[nH]c2ccccc12)NS(=O)(=O)c1ccc(F)cc1 [Example 3, N-hydroxy-2(R)-[(4-fluorobenzenesulfonyl)-amino]-3-(3-indolyl)-propanamide] |
| 7.23 | COc1ccc(S(=O)(=O)N[C@H](Cc2ccccc2)C(=O)NO)cc1 [Example 4, N-hydroxy-2(R)-[(4-methoxybenzenesulfonyl)-amino]-3-phenyl-propanamide] |
| 2.6 | O=C(NO)[C@@H](Cc1c[nH]c2ccccc12)NS(=O)(=O)c1ccc(Br)cc1 [Example 5, N-hydroxy-2(R)-[(4-bromobenzenesulfonyl)amino]-3-(3-indolyl)-propanamide] |
| 12.1 | CCCCCCCCS(=O)(=O)N[C@H](Cc1c[nH]c2ccccc12)C(=O)NO [Example 6, N-hydroxy-2(R)-[(n-octylsulfonyl)amino]-3-(3-indolyl)-propanamide] |
| 3.3 | COc1ccc(S(=O)(=O)N[C@@H](C(=O)NO)c2ccccc2)cc1 [Example 7, N-hydroxy-2(R)-[(4-methoxybenzenesulfonyl)amino]-2-phenyl acetamide] |
| 82 | CC(C)[C@@H](NS(=O)(=O)c1ccccc1)C(=O)NO [Example 9, N-hydroxy-2(R)-[(benzenesulfonyl)amino]-3-methyl butanamide] |
| 9.8 | CCC(C)(C)C(NS(=O)(=O)c1ccc(OC)cc1)C(=O)NO (stereo not drawn) [Example 10, N-Hydroxy-2-[(4-methoxybenzenesulfonyl)-amino]-3,3-dimethyl pentanamide] |
